Measured values from patent publication US20070049564A1 (Wyeth, priority 2005, published 2007).
Values after ≈ are worked out from the molar mass of the structure shown. Like-named read-outs stand apart in the source and are kept apart here.

Experiments:
[1] = test system: E. coli GC 2271; assay: MIC, broth microdilution; settings: Escherichia coli, GC2271, E. coli GC 2271
[2] = test system: E. faecium GC 2243; assay: MIC, broth microdilution; settings: Enterococcus faecium, GC2243, E. faecium GC 2243
[3] = test system: E. coli GC 2233; assay: MIC, broth microdilution; settings: Escherichia coli, GC2233, E. coli GC 2233
Description: Antimicrobial susceptibility testing. The in vitro activities of the antibiotics are determined by the broth microdilution method as recommended by the National Committee for Clinical Laboratory Standards (NCCLS) (1). Mueller-Hinton II broth (MHBII)(BBL Cockeysville, Md.) is the medium employed in the testing procedures. Microtiter plates containing serial dilutions of each antimicrobial agent are inoculated with each organism to yield the appropriate density (10^5 CFU/ml) in a 100 μl final volume. The plates are incubated for 18-22 hours at 35° C. in ambient air.
Representative compounds were first incubated in mouse serum for an hour prior to the in vitro testing against a panel of selected gram-positive and gram-negative bacteria strains. All compounds were also pre-incubated in water for an hour prior to testing as control.

[4] = test system: S. aureus GC 1079; assay: MIC, broth microdilution; settings: Staphylococcus aureus, GC1079, S. aureus GC 1079
[5] = test system: S. typhimurium GC 2172; assay: MIC, broth microdilution; settings: Salmonella enterica, TYPHIMURIUM, S. typhimurium GC 2172
[6] = test system: E. coli GC 2270; assay: MIC, broth microdilution; settings: Escherichia coli, GC2270, E. coli GC 2270
[7] = test system: S. agalactiae GC 4564; assay: MIC, broth microdilution
[8] = test system: E. coli GC 2235; assay: MIC, broth microdilution; settings: Escherichia coli, GC2235, E. coli GC 2235
[9] = test system: E. coli GC 1073; assay: MIC, broth microdilution; settings: Escherichia coli, GC1073, E. coli GC 1073
[10] = test system: c. albicans GC 3066; assay: MIC, broth microdilution
[11] = test system: S. aureus GC 6335; assay: MIC, broth microdilution; settings: Staphylococcus aureus, GC6335, S. aureus GC 6335
[12] = test system: E. faecium GC 4556; assay: MIC, broth microdilution; settings: Enterococcus faecium, GC4556, E. faecium GC 4556
[13] = test system: S. aureus GC 6469; assay: MIC, broth microdilution; settings: Staphylococcus aureus, GC6469, S. aureus GC 6469
[14] = test system: E. coli GC 3226; assay: MIC, broth microdilution; settings: Escherichia coli, GC3226, E. coli GC 3226
[15] = test system: E. coli GC 2236; assay: MIC, broth microdilution; settings: Escherichia coli, GC2236, E. coli GC 2236
[16] = test system: Staph.; assay: Range of MIC for Staph. strains, including MRSA; settings: Staphylococcus aureus, MRSA
[17] = test system: E. faecalis GC 2265; assay: MIC, broth microdilution; settings: Enterococcus faecalis, GC2265, E. faecalis GC 2265
[18] = test system: S. pyogenes GC 4563; assay: MIC, broth microdilution; settings: Streptococcus pyogenes, GC4563, S. pyogenes GC 4563
[19] = test system: E. coli; assay: Range of MIC for E. coli strains; settings: Escherichia coli
[20] = test system: E. faecalis GC 4555; assay: MIC, broth microdilution; settings: Enterococcus faecalis, GC4555, E. faecalis GC 4555

CCCN(CC(=O)Nc1cc(N(C)C)c2c(c1O)C(=O)C1=C(O)[C@]3(O)C(=O)C(C(N)=O)=C(O)[C@@H](N(C)C)[C@@H]3C[C@@H]1C2)C(=O)OCOC(=O)Cc1ccccc1 [Example 11, ({[(2-{[(5aR,6aS,7S,10aS)-9-(aminocarbonyl)-4,7-bis(dimethylamino)-1,8,10a,11′-tetrahydroxy-10,12-dioxo-5,5a,6,6a,7,10,10a,12-octahydrotetracen-2-yl]amino}-2-oxoethyl)(propyl)amino]carbonyl}oxy)methyl phenylacetate]
MIC ([1]; Mouse Serum pre-incubation): 0.25 µg/mL (≈ 0.327 µM) | MIC ([1]; Water pre-incubation): 4 µg/mL (≈ 5.24 µM) | MIC ([2]; Mouse Serum pre-incubation): 0.12 µg/mL (≈ 0.157 µM) | MIC ([2]; Water pre-incubation): 0.25 µg/mL (≈ 0.327 µM) | MIC ([3]; Mouse Serum pre-incubation): 0.25 µg/mL (≈ 0.327 µM) | MIC ([3]; Water pre-incubation): 8 µg/mL (≈ 10.5 µM) | MIC ([4]; Mouse Serum pre-incubation): 2 µg/mL (≈ 2.62 µM) | MIC ([4]; Water pre-incubation): 4 µg/mL (≈ 5.24 µM) | MIC ([5]; Mouse Serum pre-incubation): 4 µg/mL (≈ 5.24 µM) | MIC ([5]; Water pre-incubation): > 64 µg/mL | MIC ([6]; Mouse Serum pre-incubation): 0.5 µg/mL (≈ 0.655 µM) | MIC ([6]; Water pre-incubation): 8 µg/mL (≈ 10.5 µM) | MIC ([7]; S. agalactiae GC 4564, Water pre-incubation): <0.06 UG/ML | MIC ([7]; Streptococcus agalactiae, GC4564): < 0.06 µg/mL | MIC ([8]; Mouse Serum pre-incubation): 0.25 µg/mL (≈ 0.327 µM) | MIC ([8]; Water pre-incubation): 4 µg/mL (≈ 5.24 µM) | MIC ([9]; Mouse Serum pre-incubation): 0.5 µg/mL (≈ 0.655 µM) | MIC ([9]; Water pre-incubation): 16 µg/mL (≈ 20.9 µM) | MIC ([10]; Candida albicans, GC3066): > 64 µg/mL | MIC ([10]; c. albicans GC 3066, Water pre-incubation): >64 UG/ML | MIC ([11]; Mouse Serum pre-incubation): 1 µg/mL (≈ 1.31 µM) | MIC ([11]; Water pre-incubation): 1 µg/mL (≈ 1.31 µM) | MIC ([12]; Mouse Serum pre-incubation): 0.25 µg/mL (≈ 0.327 µM) | MIC ([12]; Water pre-incubation): 0.5 µg/mL (≈ 0.655 µM) | MIC ([13]; Mouse Serum pre-incubation): 4 µg/mL (≈ 5.24 µM) | MIC ([13]; Water pre-incubation): 4 µg/mL (≈ 5.24 µM) | MIC ([14]; Mouse Serum pre-incubation): 0.5 µg/mL (≈ 0.655 µM) | MIC ([14]; Water pre-incubation): > 64 µg/mL | MIC ([15]; Mouse Serum pre-incubation): 0.5 µg/mL (≈ 0.655 µM) | MIC ([15]; Water pre-incubation): 8 µg/mL (≈ 10.5 µM) | MIC ([16]; read-out: Range of MIC, Staph (Mouse Serum)): 0.25 to 4 µg/mL (≈ 0.327 to 5.24 µM) | MIC ([16]; read-out: Range of MIC, Staph (Water)): 0.25 to 4 µg/mL (≈ 0.327 to 5.24 µM) | MIC ([16]; read-out: Range of MIC, Staph. (mouse serum)): 0.25 to 4 µg/mL (≈ 0.327 to 5.24 µM) | MIC ([16]; read-out: Range of MIC, Staph. (water)): 0.25 to 4 µg/mL (≈ 0.327 to 5.24 µM) | MIC ([17]; Mouse Serum pre-incubation): 2 µg/mL (≈ 2.62 µM) | MIC ([17]; Water pre-incubation): 4 µg/mL (≈ 5.24 µM) | MIC ([18]; Mouse Serum pre-incubation): < 0.06 µg/mL | MIC ([18]; Water pre-incubation): < 0.06 µg/mL | MIC ([19]; 20 h, read-out: Range of MIC, E. coli (Mouse Serum)): 0.25 to 2 µg/mL (≈ 0.327 to 2.62 µM) | MIC ([19]; read-out: Range of MIC, E. coli (mouse serum)): 0.25 to 2 µg/mL (≈ 0.327 to 2.62 µM) | MIC ([20]; Mouse Serum pre-incubation): 0.5 µg/mL (≈ 0.655 µM) | MIC ([20]; Water pre-incubation): 1 µg/mL (≈ 1.31 µM)
